Reference: patent publication US9241913B2, “Polysialic acid-based N-trimethyl chitosan gel nanoparticles for systemic drug delivery” (Syracuse University, priority 2011, dated 2016)

Legend:
[1] = system: MH7A rheumatoid arthritis synovial fibroblast cell line; assay: WST-8 cytotoxicity assay; format: cell-based; conditions: MH7A cells, 24 hours incubation, WST-8 absorbance at 450 nm
Description: WST-8 assay (Cayman Chemical Company, Ann Arbor, Mich.) was conducted on the MH7A rheumatoid arthritis synovial fibroblast cell line, following the manufacturer's instructions, to assess the cytotoxicity of the PSA-TMC nanoparticles. NADH produced within the mitochondria reduces WST-8 tetrazolium salt to formazan dye, which can be quantified by absorbance measurements at 450 nm. Cells were seeded into 96-well cell culture plate (2×10^4 cells per well) and cultured for 24 hr at 37° C., 5% CO2. PSA-TMC (0.5:1) was added to yield a series of concentrations from 0.3125 to ˜20 mg/mL, and the cultures were incubated for an additional 24 hours. 10 μL of WST-8 solution were added to each well. After a 90 minute incubation period, absorbance was measured with a Synergy 2 multimode microplate reader (BioTek Instruments, Winooski, Vt.) at 450 nm. The cytotoxicities of TMC TPP and alone were also evaluated following the above procedure. Untreated MH7A synovial fibroblast cultures were used as controls. Relative absorbance versus concentration was plotted for each set of additives, and a four parameter logistic, constructed with Kaleidagraph software, was used to fit the data to determine the IC50 values. Each experiment was repeated independently at least two times.

rheumatoid arthritis = conditions: cited from earlier work
[2] = orally administered, patients; cited from earlier work

Row | Compound | IC50 [1] [µg/mL] | reduction in the risk of early mortality (rheumatoid arthritis; RA patients treated with methotrexate) [%] | reduction in deaths due to RA related cardiovascular disease (rheumatoid arthritis; individuals prescribed methotrexate) [%] | patients who developed severe fibrosis or cirrhosis (rheumatoid arthritis; over 55 months of treatment, rheumatoid arthritis) [%] | elimination half-lives [2]
1 | O=P(O)(O)OP(=O)(O)OP(=O)(O)O [TPP, sodium tripolyphosphate] | 220 ± 40 | – | – | – | –
2 | CN(Cc1cnc2nc(N)nc(N)c2n1)c1ccc(C(=O)N[C@@H](CCC(=O)O)C(=O)O)cc1 [methotrexate, Methotrexate] | – | 60 | 70 | 3 | six to fifty-five
